Experimental data reported in article PMC3677654, “Soy Glycinin Contains a Functional Inhibitory Sequence against Muscle-Atrophy-Associated Ubiquitin Ligase Cbl-b” (International Journal of Endocrinology, 2013).
“Also recorded” adds a separate entry of the source.

What was measured:
[1] = test system: denervated skeletal muscle of mice; conditions: ref [4], cited from earlier work
Source text: Therefore, we hypothesized that foodstuffs that contain Cblin-like amino acid sequence can be used to prevent unloading-induced muscle atrophy.

[2] = test system: Cbl-b-mediated ubiquitination of IRS-1; assay: Cbl-b-mediated IRS-1 ubiquitination in transfected HEK293 cells; type: cell-based, human Cbl-b, rat IRS-1; conditions: 120 μM, 10 ng/mL IGF-1 for 1 h, 100 nM epoxomicin, immunoblot
Description: HEK293 cells were maintained in Dulbecco's modified Eagle medium (DMEM) containing 10% fetal bovine serum, 100 U/mL penicillin, and 100 μg/mL streptomycin at 37°C under 5% CO2-[…] gas mixture.
(§1) HEK293 cells (40–60% of confluence) were transfected with plasmid vectors, using Hily Max lipofection reagent (DOJINDO, Kumamoto, Japan), as described previously. The expression plasmids used in this study were pCEFL-human Cbl-b-HA, pcDNA3.1-rat IRS-1-V5, and pcDNA3-FLAG-Ubiquitin.
(§2) Immunoblot and immunoprecipitation analyses were performed as described previously. The following antibodies were used: anti-actin (Calbiochem, La Jolla, CA, USA), anti-HA.11 (BabCo, Richmond, CA, USA), anti-V5 (Invitrogen, Carlsbad, CA, USA), anti-FLAG M2 (Sigma, St. Louis, MO, USA), anti-IRS-1 (Upstate Biotechnology, Lake Placid, NY, USA), anti-Akt-1 (PharMingen International, Tokyo), and anti-phospho-S^473-Akt-1 (Cell Signaling Technology, Beverly, MA, USA).
We used the following pentapeptides or hexapeptides derived from soy: soy-glycinin-derived peptide, soy-β-conglycinin-derived peptide, lipoprotein- (LP-) derived peptide, and soy protein isolate (SPI). These peptides were kindly provided by Fuji Oil Co. (Osaka, Japan). […] A patent application was lodged for the sequence of this peptide (Pat. no. 5113346). […] These peptides were kindly provided by Otsuka Pharmaceutical Co. (Tokushima, Japan). […]

[3] = test system: Cbl-b-mediated ubiquitination of IRS-1; conditions: ref [4], cited from earlier work; for Inhibitory activity on Cbl-b-mediated IRS-1 ubiquitination: in words
Source text: These peptides were kindly provided by Fuji Oil Co. (Osaka, Japan). […] A patent application was lodged for the sequence of this peptide (Pat. no. 5113346).

[4] = test system: interaction between Cbl-b and IRS-1; assay: Interaction between Cbl-b and IRS-1 in HEK293 cells (co-immunoprecipitation); type: cell-based, human Cbl-b, rat IRS-1; conditions: 120 μM, anti-IRS-1 immunoprecipitates
Description: as §1, §2
Figure 3 Inhibitory effect of Cblin-like synthetic peptide on Cbl-b-mediated degradation and ubiquitination of IRS-1. HEK293 cells were transfected with mock vector/pCEFL-Cbl-b-HA, pcDNA3.1-rat IRS-1-V5, and pcDNA3-FLAG-Ubiquitin and then treated with 100 nM epoxomicin at 2 hours before treatment with each peptide at the indicated concentrations. One hour later, these cells were treated with 10 ng/mL IGF-1 for 1 hour. Immunoprecipitates (IP) from whole cell lysates incubated with an anti-IRS-1 antibody were subjected to immunoblot (IB) analysis for the indicated proteins. […]

Substance	Prevention of denervation-induced muscle atrophy ([1]; mice)	Expression of MAFbx/atrogin-1 [1]	Inhibition of IRS-1 ubiquitination [2]	IC50 ([3]; approximate) [µM]	Inhibitory activity on Cbl-b-mediated IRS-1 ubiquitination [3]	Inhibition of interaction between Cbl-b and IRS-1 [4]
DGpYMP [Cblin]	inhibited Cbl-b-mediated degradation of IRS-1, resulting in suppression of denervation-mediated muscle atrophy; also recorded: prevented denervation-induced muscle atrophy in mice	inhibited Cbl-b-mediated IRS-1 ubiquitination and expression of MAFbx/atrogin-1	inhibited IRS-1 ubiquitination	~120	exhibited inhibitory activity on Cbl-b-mediated IRS-1 ubiquitination; also recorded: inhibited Cbl-b-mediated ubiquitination and degradation of IRS-1 both in vitro and in vivo	inhibited IRS-1 ubiquitination and interaction between Cbl-b and IRS-1
VGpYLR	–	–	–	–	no inhibitory activity against Cbl-b-mediated IRS-1 ubiquitination	–
